According to paper PMC8584173, “The Cytotoxic Effect of Copper (II) Complexes with Halogenated 1,3-Disubstituted Arylthioureas on Cancer and Bacterial Cells” (International Journal of Molecular Sciences, 2021):

Tests used:
[1] = test system: S. epidermidis ATCC 12228; test: MIC, twofold serial microdilution; type: cell-based, Staphylococcus epidermidis; settings: S. epidermidis ATCC 12228, 18 h, 35 °C
Experimental: (§1) The antimicrobial activity of the compounds was tested on Gram-positive bacteria (Staphylococcus aureus NCTC 4163, Staphylococcus aureus ATCC 25923, Staphylococcus aureus ATCC 6538, Staphylococcus aureus ATCC 29213, Staphylococcus epidermidis ATCC 12228, Staphylococcus epidermidis ATCC 35984), Gram-negative rods (Escherichia coli ATCC 10538, Escherichia coli ATCC 25922, Pseudomonas aeruginosa ATCC 15442, Pseudomonas aeruginosa ATCC 27863) and yeasts (Candida albicans ATCC 10231, Candida albicans ATCC 90028, Candida parapsilosis ATCC 22019). Hospital methicillin-resistant strains of Staphylococcus aureus and Staphylococcus epidermidis were obtained from the collection of the Department of Pharmaceutical Microbiology, Medical University of Warsaw, Poland.
(§2) Antifungal activities were assessed using Mueller–Hinton agar + 2% glucose and 0.5 µg/mL methylene blue dye medium. Sterile filter paper discs (9 mm diameter, Whatman Number 3 chromatography paper) were dripped with tested compound solutions (in dimethylsulfoxide, DMSO) to load 400 μg of a given compound per disc. Dry discs were placed on the surface of appropriate agar medium. The results (diameter of the growth inhibition zone) were read after 18 h of incubation at 35 °C. Minimal inhibitory concentration (MIC) was tested by the twofold serial microdilution method (in 96-well microtiter plates) using Mueller–Hinton broth medium (Beckton Dickinson) for bacteria or RPMI-1640 medium for Candida species, according to CLSI guidelines. The stock solution of tested agent was prepared in DMSO and diluted in sterile water. […] The final inoculum of all studied microorganisms was 10^5 CFU/ mL^−1 (colony forming units per ml). Minimal inhibitory concentrations (the lowest concentration of a tested agent that prevents visible growth of a microorganism) were read after 18 h (bacteria) or 24 h (yeasts) of incubation at 35 °C.

[2] = test system: S. epidermidis ATCC 35984; test: MIC, twofold serial microdilution; type: cell-based, Staphylococcus epidermidis; settings: S. epidermidis ATCC 35984, 18 h, 35 °C
Experimental: as §1, §2

S. epidermidis 420 = test: MIC, hospital MRSE strain; type: cell-based, Staphylococcus epidermidis; settings: hospital MRSE S. epidermidis 420
Experimental: as §1, §2

S. epidermidis 423 = test: MIC, hospital MRSE strain; type: cell-based, Staphylococcus epidermidis; settings: hospital MRSE S. epidermidis 423
Experimental: as §1, §2

S. epidermidis 424 = test: MIC, hospital MRSE strain; type: cell-based, Staphylococcus epidermidis; settings: hospital MRSE S. epidermidis 424
Experimental: as §1, §2

S. epidermidis 431 = test: MIC, hospital MRSE strain; type: cell-based, Staphylococcus epidermidis; settings: hospital MRSE S. epidermidis 431
Experimental: as §1, §2

S. epidermidis 432 = test: MIC, hospital MRSE strain; type: cell-based, Staphylococcus epidermidis; settings: hospital MRSE S. epidermidis 432
Experimental: as §1, §2

S. epidermidis 433 = test: MIC, hospital MRSE strain; type: cell-based, Staphylococcus epidermidis; settings: hospital MRSE S. epidermidis 433
Experimental: as §1, §2

S. epidermidis 435 = test: MIC, hospital MRSE strain; type: cell-based, Staphylococcus epidermidis; settings: hospital MRSE S. epidermidis 435
Experimental: as §1, §2

S. epidermidis 436 = test: MIC, hospital MRSE strain; type: cell-based, Staphylococcus epidermidis; settings: hospital MRSE S. epidermidis 436
Experimental: as §1, §2

S. epidermidis 437 = test: MIC, hospital MRSE strain; type: cell-based, Staphylococcus epidermidis; settings: hospital MRSE S. epidermidis 437
Experimental: as §1, §2

S. epidermidis 438 = test: MIC, hospital MRSE strain; type: cell-based, Staphylococcus epidermidis; settings: hospital MRSE S. epidermidis 438
Experimental: as §1, §2

S. epidermidis 469 = test: MIC, hospital MRSE strain; type: cell-based, Staphylococcus epidermidis; settings: hospital MRSE S. epidermidis 469
Experimental: as §1, §2

S. epidermidis 471 = test: MIC, hospital MRSE strain; type: cell-based, Staphylococcus epidermidis; settings: hospital MRSE S. epidermidis 471
Experimental: as §1, §2

S. epidermidis 510 = test: MIC, hospital MRSE strain; type: cell-based, Staphylococcus epidermidis; settings: hospital MRSE S. epidermidis 510
Experimental: as §1, §2

S. epidermidis 511 = test: MIC, hospital MRSE strain; type: cell-based, Staphylococcus epidermidis; settings: hospital MRSE S. epidermidis 511
Experimental: as §1, §2

S. epidermidis 513 = test: MIC, hospital MRSE strain; type: cell-based, Staphylococcus epidermidis; settings: hospital MRSE S. epidermidis 513
Experimental: as §1, §2

S. epidermidis 515 = test: MIC, hospital MRSE strain; type: cell-based, Staphylococcus epidermidis; settings: hospital MRSE S. epidermidis 515
Experimental: as §1, §2

[3] = test system: Bacillus subtilis H17 (rec+); test: Bacillus subtilis rec-assay, H17; type: cell-based; settings: B. subtilis H17; 256 µg per disc (NOQ 2 µg per disc)
Experimental: (§3) DNA-damaging activity of compounds was tested by rec-assay using two genetically modified Bacillus subtilis strains: M45 (rec^−) and H17 (rec^+). Tested compounds were dissolved in DMSO, and 10 µL of each solution was dripped onto sterile cotton discs (Rotilabo) to load 256 µg of a given compound per 9 mm disc. Discs were placed on the surface nutrient agar plates (Difco), inoculated with 100 µL of bacterial overnight culture and incubated […] at 35 °C. After incubation, the growth inhibition zones were measured. […] Results of the genotoxicity test were estimated after 18 h of incubation at 35 °C by comparing the diameter of the inhibition zone on the B. subtilis M45 (rec^−) strain with that on the B. subtilis H17 (rec^+) strain.

[4] = test system: Bacillus subtilis M45 (rec−); test: Bacillus subtilis rec-assay, M45; type: cell-based; settings: B. subtilis M45; 256 µg per disc (NOQ 2 µg per disc)
Experimental: as §3

## O=[N+]([O-])c1cc([N+]2=C(Nc3ccccc3Br)[S][Cu-2]23[S]C(Nc2ccccc2Br)=[N+]3c2ccc(Cl)c([N+](=O)[O-])c2)ccc1Cl [Compound 1, Copper (II) complex with 1-(2-bromophenyl)-3-(4-chloro-3-nitrophenyl)thiourea]
[1]
  MIC: 16 µg/mL
[2]
  MIC: 8 µg/mL
S. epidermidis 420
  MIC: 4 µg/mL
S. epidermidis 423
  MIC: 8 µg/mL
S. epidermidis 424
  MIC: 8 µg/mL
S. epidermidis 431
  MIC: 8 µg/mL
S. epidermidis 432
  MIC: 8 µg/mL
S. epidermidis 433
  MIC: 4 µg/mL
S. epidermidis 435
  MIC: 8 µg/mL
S. epidermidis 436
  MIC: 8 µg/mL
S. epidermidis 437
  MIC: 8 µg/mL
S. epidermidis 438
  MIC: 8 µg/mL
S. epidermidis 469
  MIC: 8 µg/mL
S. epidermidis 471
  MIC: 8 µg/mL
S. epidermidis 510
  MIC: 8 µg/mL
S. epidermidis 511
  MIC: 8 µg/mL
S. epidermidis 513
  MIC: 8 µg/mL
S. epidermidis 515
  MIC: 4 µg/mL
[3]
  inhibition zone diameter: 12 mm
[4]
  inhibition zone diameter: 12 mm
